In patent US20040072770A1, “Methods for specifically inhibiting histone deacetylase-7 and 8” (priority 2002, published 2004):
d = 2'-deoxy (DNA); m = 2'-O-methyl

Legend:
human HDAC-6 RNA = assay: HDAC-6 RNA expression screen, Northern blot; type: cell-based; details: screened as above (T24 cells, 100 nM, 24 hours)
Description: (§1) To identify antisense oligodeoxynucleotide (ODN) capable of inhibiting HDAC-1 expression in human cancer cells, eleven phosphorothioate ODNs containing sequences complementary to the 5′ or 3′ UTR of the human HDAC-1 gene (GenBank Accession No. U50079) were initially screened in T24 cells at 100 nM. Cells were harvested after 24 hours of treatment, and HDAC-1 RNA expression was analyzed by Northern blot analysis. […] HDAC-1 MM oligo was created as a control; compared to the antisense oligo, it has a 6-base mismatch.
Thirteen phosphorothloate ODNs containing sequences complementary to the 5′ or 3′ untranslated regions of the human HDAC-6 gene (GenBank Accession No. AJ011972) were screened as above. […] HDAC-6 MM oligo was created as a control; compared to the antisense oligo, it contains a 7-base mismatch.

mammalian HDAC = details: Yoshida et al., J. Biol. Chem. 265:17174-17179 (1990); cited from earlier work
[1] = system: murine erythroleukemia cells; details: Yoshida et al, Cancer Res. 47:3688-3691 (1987); cited from earlier work
A549 cells [2] = assay: Growth inhibition by antisense oligos, A549; type: cell-based, human; details: 50 nM, 48 hour, vs cells treated with lipofectin
Description: (§2) For all ex vivo oligo treatment, human A549 human […] carcinoma cells were seeded in 10 cm tissue culture dishes one day prior to oligonucleotide treatment. The cell lines were obtained from the American Type Culture Collection (ATCC) (Manassas, Va.) and were grown under the recommended culture conditions. Before the addition of the oligonucleotides, cells were washed with PBS (phosphate buffered saline). Next, lipofectin transfection reagent (GIBCO BRL Mississauga, Ontario, Calif.), at a concentration of 6.25 μg/ ml, was added to serum free OPTIMEM medium (GIBCO BRL, Rockville, Md.), which was then added to the cells. The oligonucleotides were added directly to the cells (i.e., one oligonucleotide per plate of cells). Mismatched oligonucleotides were used as controls. The same concentration of oligonucleotide (e.g., 50 nM) was used per plate of cells for each oligonucleotide tested.
(§3) In order to determine the effect of HDAC ODNs on cell growth inhibition and cell death through apoptosis, A549, T24, DuI45, HCT116 cells (ATCC, Manassas, Va.), or HMEC cells (BioWhittaker, Walkersville, Md.) were treated with HDAC ODNs as previously described.
(§4) For the cell growth inhibition analysis, human cancer or normal cells were treated with 50 nM of paired AS or MM oligos directed against human HDAC-1, HDAC-7 or HDAC-8for up to 96 hours. Cell numbers were counted every day by trypan blue exclusion. Percentage of inhibition was calculated as (100 - AS cell numbers/control cell numbers)%.

Du145 cells = assay: Growth inhibition by antisense oligos, Du145; type: cell-based, human; details: 50 nM, 48 hour, vs cells treated with lipofectin
Description: as §2, §3, §4

A549 cells [3] = assay: Apoptosis (Cell Death Detection ELISA), A549; type: cell-based, human; details: 50 nM, 48 hours, over mismatch control
Description: as §2, §3
(§5) For the apoptosis study, cells were analyzed using the Cell Death Detection ELISA^Plus kit (Roche Diagnostic GmBH, Mannheim, Germany) according to the manufacturer's directions. Typically, 10,000 cells were plated in 96-well tissue culture dishes for 2 hours before harvest and lysis. Each sample was analyzed in duplicate. ELISA reading was done using a MR700 plate reader (DYNEX Technology, Ashford, Middlesex, England) at 410 nm. The reference was set at 490 nm.
[…] Similarly, A549 cells were treated with 20 nM of HDAC1 AS in combination with 20 nM of each of AS inhibitors against human HDAC2 to HDAC8. After 48 hour treatment, A549 cells were harvested and analyzed for apoptosis by ELISA as described previously. Apoptosis of A549 cells by AS inhibition was compared to that of cells treated with 1 uM TSA for 16 hours. […] The control oligo UMM had no effect on induction of apoptosis.

T24 cells = assay: Apoptosis (Cell Death Detection ELISA), T24; type: cell-based, human; details: 50 nM, 48 hours, over mismatch control
Description: as §2, §3, §5

HCT116 cells [4] = assay: Inhibition of agar colony formation, HCT116; type: cell-based, human; details: 50 nM oligos for 48 hours, vs cells treated with lipofectin
human HDAC-8 mRNA = assay: HDAC-8 mRNA expression in A549 cells, Northern blot; type: cell-based
Description: To identify antisense oligodeoxynucleotides (ODN) capable of inhibiting HDAC-8 expression in human cancer cells, fourteen phosphorothioate ODNs containing sequences complementary to the 5′ or 3′ UTR of the human […] (GenBank Accession No. AF230097) were initially screened in A549 cells at 100 nM. Cells were harvested after 24 hours of treatment, and HDAC-8 RNA expression was analyzed by Northern blot analysis. […] Total RNAs were harvested and were analyzed by Northern Blot. GAPDH expression was analyzed to indicate total RNA loading in each lane.
In order to determine the dose response of HDAC7 antisense inhibitors to reduce HDAC7 message at the mRNA level, Human A549 cells were treated with 25 or 50 nM of antisense (AS1 and AS2) oligos directed against human HDAC-7 or the corresponding mismatch of AS1 (MM1) oligo or an universal mismatch (UMM) for 24 hours. […] The time dependence of HDAC7 antisense inhibitors on blocking HDAC7 gene expression at the mRNA level was analyzed by treating A549 cells with 50 nM AS1 or MM1 oligos. […] Similarly, A549 cells were treated with 25 nM or 50 nM of AS1 or AS2 oligos directed against human HDAC-8 or its MM oligo for AS2 (MM2) for 24 hours. AS-2 oligo against human HDAC8 at 50 nM was also used to treat A549 cells for 24 or 48 hours.
as §2
Cells were harvested, and total RNAs were analyzed by Northern blot analysis. Briefly, total RNA was extracted using RNeasy miniprep columns (QIAGEN Canada, Mississauga, Ontario). Ten to twenty […] of total RNA was run on a formaldehyde-containing 1% agarose gel with 0.5 M sodium phosphate (pH 7.0) as the buffer system. RNAs were then transferred to nitrocellulose membranes and hybridized with the indicated radiolabeled DNA probes. Autoradiography was performed using conventional procedures.

human HDAC-2 RNA = assay: HDAC-2 RNA expression screen, Northern blot; type: cell-based; details: screened as above (T24 cells, 100 nM, 24 hours)
Description: as §1
Twenty-four phosphorothioate ODNs containing sequences complementary to the 5′ or 3′ UTR of the human HDAC-2 gene (GenBank Accession No. U31814) were screened as above. […] HDAC-2 MM was created as a control; compared to the antisense oligo, it contains a 7-base mismatch.

HCT116 cells [5] = assay: Growth inhibition by antisense oligos, HCT116; type: cell-based, human; details: 50 nM, 48 hour, vs cells treated with lipofectin
Description: as §2, with “tested. […]” for “tested.”
as §4

MDAmb231 cells [6] = assay: Growth inhibition by antisense oligos, MDAmb231; type: cell-based, human; details: 50 nM, 48 hour, vs cells treated with lipofectin
Description: [The procedure below names another cell line; the source lists this cell line under the same test.] as §2, with “tested. […]” for “tested.”
as §4

MDAmb231 cells [7] = assay: Apoptosis (Cell Death Detection ELISA), MDAmb231; type: cell-based, human; details: 50 nM, 48 hours, over mismatch control
MDAmb231 cells [8] = assay: Inhibition of agar colony formation, MDAmb231; type: cell-based, human; details: 50 nM oligos for 48 hours, vs cells treated with lipofectin

Compound	Growth Inhibition A549 (A549 cells [2])	Growth Inhibition Du145 (Du145 cells)	Apoptosis A549 (A549 cells [3])	Apoptosis T24 (T24 cells)	inhibition of agar colony formation HCT 116 (HCT116 cells [4])	other results
5′-CAGGCTGGAATGAGCTACAG-3′ (sugars from the 5' end m4 d12 m4, all phosphorothioate, methylation of C not given here) [HD6 AS, antisense oligo, Human HDAC6 3′-UTR]	–	–	–	–	–	HDAC-6 RNA expression, screen (human HDAC-6 RNA): antisense activity to human HDAC-6
CC(/C=C/C(=O)NO)=C\[C@@H](C)C(=O)c1ccc(N(C)C)cc1 [TSA, (R)-Trichostatin A]	–	–	–	–	–	inhibition of mammalian HDAC (mammalian HDAC): potent inhibitor; induction of differentiation [1]: potent inducer of differentiation
5′-AGCCAGCTGCCACTTGAUGC-3′ (sugars from the 5' end m4 d12 m4, all phosphorothioate, methylation of C not given here) [HD8 AS2, antisense oligo, Human HDAC8 3′-UTR]	+ (“+” means >35% inhibition of cell growth by antisense oligos (50 nM, 48 hour) compared to that of cells treated with lipofectin)	+ (“+” means >35% inhibition of cell growth by antisense oligos (50 nM, 48 hour) compared to that of cells treated with lipofectin)	+ (“+” means the induction of apoptosis at least 2 fold over mismatch control (50 nM, 48 hours))	+ (“+” means the induction of apoptosis at least 2 fold over mismatch control (50 nM, 48 hours))	+ (“+” means >35% inhibition of agar colony formation of cells treated with 50 nM oligos for 48 hours compared to that of cells treated with lipofectin)	HDAC-8 mRNA expression, dose response (FIG. 5) (human HDAC-8 mRNA; 25 nM or 50 nM, 24 hours): inhibited in a dose-dependent manner; HDAC-8 mRNA expression, time course (FIG. 6) (human HDAC-8 mRNA; 50 nM, 24 or 48 hours): significantly block HDAC8 expression at the mRNA level by 24 hours; HDAC-8 RNA expression, initial screen (human HDAC-8 mRNA; 100 nM, 24 hours): good antisense activities
5′-GCUGAGCTGTTCTGATUUGG-3′ (sugars from the 5' end m4 d12 m4, all phosphorothioate, methylation of C not given here) [HD2 AS, antisense oligo, Human HDAC2 3′-UTR]	–	+ (“+” means >35% inhibition of cell growth by antisense oligos (50 nM, 48 hour) compared to that of cells treated with lipofectin)	–	–	–	HDAC-2 RNA expression, screen (human HDAC-2 RNA): antisense activity to human HDAC-2
5′-GCUGCCTGCCGTGCCCACCC-3′ (sugars from the 5' end m4 d12 m4, all phosphorothioate, methylation of C not given here) [HD4 AS1, antisense oligo, Human HDAC4 5′-UTR]	+ (“+” means >35% inhibition of cell growth by antisense oligos (50 nM, 48 hour) compared to that of cells treated with lipofectin)	+ (“+” means >35% inhibition of cell growth by antisense oligos (50 nM, 48 hour) compared to that of cells treated with lipofectin)	+ (“+” means the induction of apoptosis at least 2 fold over mismatch control (50 nM, 48 hours))	+ (“+” means the induction of apoptosis at least 2 fold over mismatch control (50 nM, 48 hours))	+ (“+” means >35% inhibition of agar colony formation of cells treated with 50 nM oligos for 48 hours compared to that of cells treated with lipofectin)	Growth Inhibition HCT 116 (HCT116 cells [5]): + (“+” means >35% inhibition of cell growth by antisense oligos (50 nM, 48 hour) compared to that of cells treated with lipofectin); Growth Inhibition MDAmb 231 (MDAmb231 cells [6]): + (“+” means >35% inhibition of cell growth by antisense oligos (50 nM, 48 hour) compared to that of cells treated with lipofectin); Apoptosis MDAmb 231 (MDAmb231 cells [7]): + (“+” means the induction of apoptosis at least 2 fold over mismatch control (50 nM, 48 hours)); inhibition of agar colony formation MDAmb 231 (MDAmb231 cells [8]): + (“+” means >35% inhibition of agar colony formation of cells treated with 50 nM oligos for 48 hours compared to that of cells treated with lipofectin)
